Reference: ChEMBL document CHEMBL1153391 (J Med Chem, 2009)

Columns and labels:
[1] = molecular target: Procathepsin L (Homo sapiens, UniProt P07711); assay: Inhibition of cathepsin L
[2] = molecular target: Cathepsin B (Homo sapiens, UniProt P07858); assay: Inhibition of cathepsin B
[3] = Inhibition of Plasmodium falciparum falcipain-2
[4] = system: Plasmodium falciparum; assay: Antiplasmodial activity against Plasmodium falciparum FCBR; format: functional, organism-based
[5] = Apparent permeability across human Caco-2 cells; format: ADME, cell-based
[6] = Apparent permeability from apical to basolateral side of human Caco-2 cells
[7] = Apparent permeability from basolateral to apical side of human Caco-2 cells
[8] = Cytotoxicity against human HEK293T cells; format: cell-based; details: HEK-293T
[9] = Cytotoxicity against mouse J774.1 cells; format: cell-based
[10] = Cytotoxicity against mouse DC

Procathepsin L, sequence (P07711 whole entry): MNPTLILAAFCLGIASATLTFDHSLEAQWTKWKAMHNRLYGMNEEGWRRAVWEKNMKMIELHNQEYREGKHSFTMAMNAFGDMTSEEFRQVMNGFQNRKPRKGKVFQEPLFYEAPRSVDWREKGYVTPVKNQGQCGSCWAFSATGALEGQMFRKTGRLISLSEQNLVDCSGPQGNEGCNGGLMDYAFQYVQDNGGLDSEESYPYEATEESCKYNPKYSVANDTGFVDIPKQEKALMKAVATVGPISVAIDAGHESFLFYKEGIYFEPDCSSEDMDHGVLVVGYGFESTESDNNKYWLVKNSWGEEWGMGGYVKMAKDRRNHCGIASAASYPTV

## CN(C)C(=O)/C=C/CNC(=O)CN1C(=O)[C@@H](COC(=O)Nc2ccc(Cl)cc2C(F)(F)F)N=C(c2ccccc2)c2ccccc21
[1]
  Ki: 1.9 µM
[2]
  Ki: 0.85 µM
[3]
  Ki: 0.076 µM
[4]
  IC50: > 100 µM

## CC(C)C[C@H](NC(=O)[C@H]1O[C@@H]1C(=O)O)C(=O)NCCCCN=C(N)N [E-64]
[3]
  Ki: 0.29 µM

## CC[C@]1(O)C[C@@H]2CN(CCc3c([nH]c4ccccc34)[C@@](C(=O)OC)(c3cc4c(cc3OC)N(C)[C@H]3[C@@](O)(C(=O)OC)[C@H](OC(C)=O)[C@]5(CC)C=CCN6CC[C@]43[C@@H]65)C2)C1 [VINBLASTINE]
[5]
  Papp: 0.51 ×10⁻⁶ cm/s

## CN/C(=N/CCSCc1nc[nH]c1C)NC#N [CIMETIDINE]
[6]
  Papp A→B: 0.56 ×10⁻⁶ cm/s
[7]
  Papp B→A: 1.5 ×10⁻⁶ cm/s

## N#C/C=C/CNC(=O)CN1C(=O)[C@@H](COC(=O)Nc2ccc(Cl)cc2C(F)(F)F)N=C(c2ccccc2)c2ccccc21
[1]
  Ki: 3.2 µM
[2]
  Ki: 9.9 µM
[3]
  Ki: 0.19 µM
[4]
  IC50: 36.1 µM

## CN(C)C(=O)/C=C/[C@H](CCc1ccccc1)NC(=O)CN1C(=O)[C@@H](COC(=O)Nc2ccc(Cl)cc2C(F)(F)F)N=C(c2ccccc2)c2ccccc21
[1]
  Ki: 7.4 µM
[2]
  Ki: 6.4 µM
[3]
  Ki: 0.076 µM

## COC(=O)/C=C/CNC(=O)CN1C(=O)[C@@H](COC(=O)Nc2ccc(Cl)cc2C(F)(F)F)N=C(c2ccccc2)c2ccccc21
[1]
  Ki: 8.4 µM
[5]
  Papp: 3.82 ×10⁻⁶ cm/s
[8]
  IC50: 31.2 µM
[9]
  IC50: 31.3 µM
[10]
  IC50: 30.4 µM
[2]
  Ki: 7.3 µM
[3]
  Ki: 0.017 µM
[4]
  IC50: 12 µM

## COC(=O)/C=C/[C@H](CCc1ccccc1)NC(=O)CN1C(=O)[C@@H](COC(=O)Nc2ccc(Cl)cc2C(F)(F)F)N=C(c2ccccc2)c2ccccc21
[1]
  Ki: 2.7 µM
[2]
  Ki: 13.7 µM

## CC(=O)/C=C/CNC(=O)CN1C(=O)[C@@H](COC(=O)Nc2ccc(Cl)cc2C(F)(F)F)N=C(c2ccccc2)c2ccccc21
[1]
  Ki: 5.9 µM
[2]
  Ki: 6 µM
[4]
  IC50: 9.3 µM

## CC(=O)/C=C/[C@H](CCc1ccccc1)NC(=O)CN1C(=O)[C@@H](COC(=O)Nc2ccc(Cl)cc2C(F)(F)F)N=C(c2ccccc2)c2ccccc21
[1]
  Ki: 7.5 µM
[2]
  Ki: 8.4 µM
